Test results from PubChem BioAssay AID1963437 (Molecular Pharmacology Branch, DTP, NCI, 2024).

System: OVCAR-8 complex spheroid, growth inhibition
Test: Anticancer human tumor OVCAR-8 cell line growth inhibition [Asc];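 also: spheroids exposed to agents for 7 days before readout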;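 as to viability, T/C: percent viability relative to DMSO vehicle wells taken as 100%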
Details: for IC50: curve of first compound; for viability, T/C: stronger effect = lower value
How it was run: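 Tumor cells were grown as complex spheroids with human endothelial cells (HUVEC) and human mesenchymal stem cells as stroma. Agents were tested alone and in combination, in half-log steps down from the clinical Cmax, or from 10 microM where Cmax was unknown.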

IC50 (second compound 0.00316 µM): > 1000 nM
IC50 (second compound 0.01 µM): > 1000 nM
IC50 (second compound 0.0316 µM): 969 nM
IC50 (second compound 0.1 µM): 641 nM
IC50 (second compound 0.316 µM): 548 nM
IC50 (second compound 1 µM): 508 nM
Structure (SMILES): O=C(c1ccc(F)c(F)c1Nc1ccc(I)cc1F)N1CC(O)([C@@H]2CCCCN2)C1 + CNC(C)C(=O)NC1CN(S(=O)(=O)c2cccc(S(=O)(=O)N3CCC4CCC(C(=O)NC(c5ccccc5)c5ccccc5)N4C(=O)C(NC(=O)C(C)NC)C3)c2)CCC2CCC(C(=O)NC(c3ccccc3)c3ccccc3)N2C1=O
viability, T/C (second compound 0.00316 µM, first compound 0.00316 µM): 113%
viability, T/C (second compound 0.00316 µM, first compound 0.01 µM): 97%
viability, T/C (second compound 0.00316 µM, first compound 0.0316 µM): 153%
viability, T/C (second compound 0.00316 µM, first compound 0.1 µM): 166%
viability, T/C (second compound 0.00316 µM, first compound 0.316 µM): 232%
viability, T/C (second compound 0.00316 µM, first compound 1 µM): 84.5%
viability, T/C (second compound 0.01 µM, first compound 0.00316 µM): 97.3%
viability, T/C (second compound 0.01 µM, first compound 0.01 µM): 101%
viability, T/C (second compound 0.01 µM, first compound 0.0316 µM): 146%
viability, T/C (second compound 0.01 µM, first compound 0.1 µM): 185%
viability, T/C (second compound 0.01 µM, first compound 0.316 µM): 223%
viability, T/C (second compound 0.01 µM, first compound 1 µM): 98.7%
viability, T/C (second compound 0.0316 µM, first compound 0.00316 µM): 95.2%
viability, T/C (second compound 0.0316 µM, first compound 0.01 µM): 99.8%
viability, T/C (second compound 0.0316 µM, first compound 0.0316 µM): 116%
viability, T/C (second compound 0.0316 µM, first compound 0.1 µM): 163%
viability, T/C (second compound 0.0316 µM, first compound 0.316 µM): 216%
viability, T/C (second compound 0.0316 µM, first compound 1 µM): 47.5%
viability, T/C (second compound 0.1 µM, first compound 0.00316 µM): 82.3%
viability, T/C (second compound 0.1 µM, first compound 0.01 µM): 82.2%
viability, T/C (second compound 0.1 µM, first compound 0.0316 µM): 118%
viability, T/C (second compound 0.1 µM, first compound 0.1 µM): 168%
viability, T/C (second compound 0.1 µM, first compound 0.316 µM): 153%
viability, T/C (second compound 0.1 µM, first compound 1 µM): 5.38%
viability, T/C (second compound 0.316 µM, first compound 0.00316 µM): 70.8%
viability, T/C (second compound 0.316 µM, first compound 0.01 µM): 80.3%
viability, T/C (second compound 0.316 µM, first compound 0.0316 µM): 90.4%
viability, T/C (second compound 0.316 µM, first compound 0.1 µM): 120%
viability, T/C (second compound 0.316 µM, first compound 0.316 µM): 108%
viability, T/C (second compound 0.316 µM, first compound 1 µM): 2.09%
viability, T/C (second compound 1 µM, first compound 0.00316 µM): 76.4%
viability, T/C (second compound 1 µM, first compound 0.01 µM): 94.9%
viability, T/C (second compound 1 µM, first compound 0.0316 µM): 101%
viability, T/C (second compound 1 µM, first compound 0.1 µM): 106%
viability, T/C (second compound 1 µM, first compound 0.316 µM): 83.9%
viability, T/C (second compound 1 µM, first compound 1 µM): 1.27%
